We go through three compounds from patent US20090124607A1, “Novel Bicyclic Sulfonamides for Use as Glucocorticoid Receptor Modulators in the Treatment of Inflammatory Diseases” (priority 2005, published 2009).

The test concerns the target T1, recombinant human GR (Homo sapiens, UniProt P04150).
T1 construct: purchased Panvera/Invitrogen P2812 (kit P2893)
T1 sequence (P04150 1-777): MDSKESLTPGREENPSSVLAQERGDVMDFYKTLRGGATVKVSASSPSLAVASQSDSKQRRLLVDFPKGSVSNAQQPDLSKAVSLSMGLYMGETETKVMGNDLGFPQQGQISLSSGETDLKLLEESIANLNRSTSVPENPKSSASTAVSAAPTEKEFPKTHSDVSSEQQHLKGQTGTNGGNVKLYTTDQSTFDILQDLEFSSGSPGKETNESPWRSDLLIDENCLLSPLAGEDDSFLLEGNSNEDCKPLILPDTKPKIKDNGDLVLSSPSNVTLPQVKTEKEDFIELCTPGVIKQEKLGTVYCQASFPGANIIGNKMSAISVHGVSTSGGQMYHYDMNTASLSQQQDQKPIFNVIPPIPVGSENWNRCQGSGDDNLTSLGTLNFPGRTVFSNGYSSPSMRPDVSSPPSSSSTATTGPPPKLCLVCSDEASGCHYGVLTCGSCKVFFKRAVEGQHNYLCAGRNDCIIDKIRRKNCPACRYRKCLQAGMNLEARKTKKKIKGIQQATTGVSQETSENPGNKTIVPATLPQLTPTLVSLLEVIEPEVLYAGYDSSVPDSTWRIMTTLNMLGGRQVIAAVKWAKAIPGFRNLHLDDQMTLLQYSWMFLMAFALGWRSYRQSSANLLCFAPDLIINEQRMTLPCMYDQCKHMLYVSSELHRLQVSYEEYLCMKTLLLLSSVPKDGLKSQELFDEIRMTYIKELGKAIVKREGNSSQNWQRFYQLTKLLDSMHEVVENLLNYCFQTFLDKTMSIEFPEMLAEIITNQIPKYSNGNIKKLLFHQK
Kind of test: Human Glucocorticoid Receptor (GR) Assay, fluorescence polarization (GRhuFL_FP_v2, GR-binders). The class given is binding. On the procedure: Human Glucocorticoid Receptor (GR) Assay
The assay is based on a commercial kit from Panvera/Invitrogen (Part number P2893). The assay technology is fluorescence polarization. […] The GR and Stabilizing Peptide reagents are stored at −70° C. while the GS Red is stored at −20° C. Also included in the kit are 1M DTT (Panvera, Part number P2325, stored at −20° C.) and GR Screening buffer 10× (Panvera, Part number P2814, stored at −70° C. initially but once thawed stored at room temperature). Avoid repeated freeze/thaws for all reagents. The GR Screening buffer 10× comprises 100 mM potassium phosphate, 200 mM sodium molybdate, 1 mM EDTA and 20% DMSO.
0% control was 100% DMSO and 100% control was 10 μM Dexamethasone. Background solution (8 μL; assay buffer 10×, Stabilizing Peptide, DTT and ice cold MQ water) was added to the background wells. GS Red solution (7 μL; assay buffer 10×, Stabilizing Peptide, DTT, GS Red and ice cold water) was added to all wells except background wells. GR solution (7 μL; assay buffer 10×, Stabilizing Peptide, DTT, GR and ice cold water) was added to all wells. The plate was sealed and incubated in a dark at room temperature for 2 hours.

For `Cc1cc(C)c(S(=O)(=O)N[C@@H](C)CNc2cccc3c2c(C)nn3-c2ccc(F)cc2)c(C)c1` [Example 52, N-((1S)-2-{[1-(4-Fluoro-phenyl)-3-methyl-1H-indazol-4-yl]amino}-1-methylethyl)-2,4,6-trimethylbenzenesulfonamide], the IC50 was determined as 272 nM.

As to `Cc1cc(C)c(S(=O)(=O)N[C@@H](C)CNc2cccc3c2cnn3-c2ccnc(F)c2)c(C)c1` [Example 10, N-((1S)-2-{[1-(2-Fluoropyridin-4-yl)-1H-indazol-4-yl]amino}-1-methylethyl)-2,4,6-trimethylbenzenesulfonamide], the IC50 was determined as 7.1 nM.

In the case of `Cc1nn([C@@H]2CCOC2)c(C)c1S(=O)(=O)N[C@@H](C)COc1cccc2c1cnn2-c1ccc(F)cc1` [Example 45, N-((1S)-2-{[1-(4-Fluorophenyl)-1H-indazol-4-yl]oxy}-1-methylethyl)-3,5-dimethyl-1-[(3R)-tetrahydrofuran-3-yl]-1H-pyrazole-4-sulfonamide], the IC50 was determined as 18 nM.
